The test system of assay [1] is A. baumannii strain 98-37-09. Kind of assay: MEC determination: potentiation of minocycline toward serum grown A. baumannii. The settings on record: for Log-reduction Colony Forming Units (ml^−1): 1×MEC of compound plus minocycline in serum, versus minocycline alone, plating; for MEC: lowest concentration inhibiting growth in 100% human serum with 0.5 μg ml^−1 minocycline, 48 hr. In kind it is cell-based, Acinetobacter baumannii. On the procedure: The TimTec ActiProbe-25K diversity-set and Natural Product compound libraries (29,900 compounds total; TimTec, Newark, Del.) were initially screened for putative efflux pump inhibitors by identifying compounds that potentiated the antimicrobial property of a sub-inhibitory concentration of minocycline toward A. baumannii grown in human serum. To do so, A. baumannii strain 98-37-09 was grown for 16 hours in LB medium at 37° C. on a rotary shaker at 225 rpm. Approximately 1×10^5 CFU were then transferred to individual wells of a 96-well round-bottom plate (Corning Costar, Tewksbury, Mass.) containing 100 μL of human serum supplemented with of minocycline (0.5 μg mL^−1; 0.5× minimum inhibitory concentration in serum) and individual members of the Timtec ActiProbe or Natural product library (50 μM). Plates were then incubated at 37° C. for 48 hours. Growth was measured as a function of turbidity. Putative efflux pump inhibitors were identified as compounds that inhibited A. baumannii growth in human serum containing minocycline and were subsequently retested in triplicate, as indicated above. Untreated A. baumannii grown in serum supplemented with minocycline+/−PAβN served as positive and negative controls, respectively. […] Repeat testing in which well constituents were serial diluted and plated on LB agar plates validated that 85 compounds did indeed limit A. baumannii growth in serum supplemented with minocycline, reducing the number of viable colony forming units between 2-6 log cfu in comparison to minocycline alone treated cells.
The MEC was defined as the lowest concentration of test compound required to inhibit the growth of A. baumannii in serum in the presence of 0.5 μg ml^−1 minocycline. Plating confirmed that addition of 1×MEC of each compound elicited ≥1.9-log reduction in A. baumannii cells grown in serum supplemented with minocycline alone (see Table 1).

Assay [2] concerns A. baumannii strain 98-37-09. In words: Cellular accumulation of minocycline (HPLC, triple-quadrupole MS). In kind it is cell-based, Acinetobacter baumannii. The settings on record: human serum with 0.5 μg mL^−1 minocycline plus test compound (0.5×MEC, 1×MEC), 48 hours. As for the experimental part: High pressure liquid chromatography and triple-quadrupole mass spectrometry were used to measure the A. baumannii intracellular levels of minocycline during growth in human serum in the absence and presence of each putative efflux pump inhibitor. […] Cultures were incubated for 48 hours with shaking, at which point an aliquot was removed, serially diluted, and plated to determine the number of viable CFU per mixture. The remainder of the cells were pelleted by centrifugation at 900×g at 4° C., washed twice in PBS, mechanically lysed with a FastPrep cell disrupter (MP Biomedicals, Santa Ana, Calif.) for 20 seconds at 5 m s^−1 and the cellular debris was pelleted via centrifugation at 900×g and 4° C. The amount of minocycline present within the supernatant of ruptured cells was measured. Briefly, doxycycline (0.5 μg mL^−1) was first added to each supernatant to serve as an internal control to account for sample-to-sample preparation variability. The supernatant was then combined with acetonitrile (ACN) at a 1:10 ratio and centrifuged at 16,000×g, at 4° C., to collect minocycline and doxycycline. […] residual liquid was evaporated in a speed vacuum for 2 hours at 8,000×g. To quantify the amount of antibiotics retained, sample materials were suspended in 50% acetonitrile, filtered through a 0.2 μm low protein binding hydrophilic membrane (Millipore, Billerica, Mass.) then separated on Shimadzu high performance liquid chromatography instrument (Fisher Scientific) using a BetaBasic C18 reverse phase column (Thermo Scientific). Separation was carried out with two mobile phase solutions consisting of solution (A) water with 0.1% formic acid and solution (B) 100% ACN. The gradient profile of the chromatography runs was as follows: from 0 to 0.1 min 8% solution B, ramp step wise (37% to 60% solution B) from 0.1 to 6.5 min then holding for one minute before ramping down from 60% to 10% from 7.5 to 8 min. This was followed a hold at 10% solution B for one minute. […] The column was equilibrated in 8% solution B at 40° C. and the flow rate was set to 0.2 mL min^−1. Mass spectrometry analysis of fractions was carried out using a Thermo TSQ Quantum Ultra triple quadrupole mass spectrometer (Fisher Scientific). Data were analyzed using Xcalibur software (Thermo Scientific); the following parameters were used to detect minocycline and the internal control doxycycline: 458.208 m/z→282.971 m/z (collision energy=43, tube lens=119) for minocycline and 445.144 m/z→266.900 m/z (collision energy=39, tube lens=127) for doxycycline. Analysis of the raw data was conducted by using the area under the curve calculations with the Genesis algorithm to determine the concentration in each sample. The difference between the peak intensity and the y intercept of pre-established minocycline and doxycycline standard curves was divided by the slope of the standard curve to quantify the amount of minocycline within each sample. The total concentration of minocycline within each cell was calculated by normalizing to the number of cells within each corresponding culture.

With `CCOc1cc(C(=O)N2CC(=O)Nc3ccccc32)cc(OCC)c1OCC` [ST059010], in assay [1], the “Log-reduction Colony Forming Units (ml^−1)” value is recorded as 6.11 log and the MEC is 32 µg/mL. In addition, the “Minocylcine Per Cell (femtomoles cell^−1)” value (“Minocylcine Per Cell” for short) in assay [2] came to 3.78E−08 femtomoles cell^−1.

Take `CC(C)CCOC(=O)C(NS(=O)(=O)c1ccc2c(c1)CCN2S(C)(=O)=O)c1ccccc1` (stereo not drawn) [ST058811]: in assay [1], the “Log-reduction Colony Forming Units (ml^−1)” value was 6.17 log and the MEC stood at 4 µg/mL. For the same compound, the “Minocylcine Per Cell” value in assay [2] was found to be 2.48E−07 femtomoles cell^−1.

For the compound `COc1ccccc1C1N(Cc2ccccc2)CCN1Cc1ccccc1` [ST036365], in assay [1], the “Log-reduction Colony Forming Units (ml^−1)” value amounted to 3.50 log and the MEC came out at 4 µg/mL. The “Minocylcine Per Cell” value in assay [2] is reported as 3.59E−08 femtomoles cell^−1.

Consider `O=C(N/N=C/c1cccs1)c1ccncc1` [ST010260], for which, in assay [1], the “Log-reduction Colony Forming Units (ml^−1)” value is 2.66 log and the MEC turned out to be 16 µg/mL. The “Minocylcine Per Cell” value in assay [2] is 3.27E−08 femtomoles cell^−1.

In the case of `CCOC(=O)C1=C(N)OC2=C(C(=O)CCC2)C1c1sccc1C` (stereo not drawn) [ST009847], in assay [1], the “Log-reduction Colony Forming Units (ml^−1)” value came out at 4.97 log and the MEC came to 2 µg/mL. The “Minocylcine Per Cell” value in assay [2] stood at 2.54E−07 femtomoles cell^−1.

For `COc1ccc(-c2c3c([nH]c(=O)c2C#N)CCCCC3)cc1` [ST060355], in assay [1], the “Log-reduction Colony Forming Units (ml^−1)” value is on record as 6.94 log and the MEC came out at 32 µg/mL. Moreover, the “Minocylcine Per Cell” value in assay [2] was found to be 1.23E−08 femtomoles cell^−1.

On to `N#CC1=C(N)OC2=C(C(=O)CCC2)C1c1c(Cl)cccc1Cl` (stereo not drawn) [ST009850], for which, in assay [1], the “Log-reduction Colony Forming Units (ml^−1)” value was 2.47 log and the MEC was 2 µg/mL. In addition, the “Minocylcine Per Cell” value in assay [2] amounted to 7.25E−08 femtomoles cell^−1.

Consider `O=S(=O)(Nc1nccs1)c1ccc(/N=C/c2ccc3c(c2)OCO3)cc1` [ST012901], for which, in assay [1], the “Log-reduction Colony Forming Units (ml^−1)” value worked out at 2.66 log and the MEC was 2 µg/mL. The “Minocylcine Per Cell” value in assay [2] is 4.16E−09 femtomoles cell^−1.

In the case of `Cc1ccc(C2N(Cc3ccccc3)CCN2Cc2ccccc2)s1` [ST008277], in assay [1], the “Log-reduction Colony Forming Units (ml^−1)” value is listed as 5.19 log and the MEC worked out at 4 µg/mL. Also, the “Minocylcine Per Cell” value in assay [2] was found to be 4.41E−08 femtomoles cell^−1.

On to `CCN(CC)S(=O)(=O)c1ccc(NC(=O)C2CC(=O)N(c3ccc(OC)cc3)C2)cc1` (stereo not drawn) [ST059822], for which, in assay [1], the “Log-reduction Colony Forming Units (ml^−1)” value is on record as 6.23 log and the MEC turned out to be 4 µg/mL. Further, the “Minocylcine Per Cell” value in assay [2] is listed as 1.36E−07 femtomoles cell^−1.

As to `NNC(=O)CSCc1ccc(Cl)cc1` [ST020992], in assay [1], the “Log-reduction Colony Forming Units (ml^−1)” value was determined as 7.43 log and the MEC came out at 2 µg/mL. Further, the “Minocylcine Per Cell” value in assay [2] is on record as 1.53E−07 femtomoles cell^−1.

In the case of `Cc1cc(O)c(C(C)C)cc1C1(c2cc(C(C)C)c(O)cc2C)OC(=O)c2ccccc21` [ST009495], in assay [1], the “Log-reduction Colony Forming Units (ml^−1)” value was 2.23 log and the MEC came out at 2 µg/mL. Besides, in assay [2], the “Minocylcine Per Cell” value is 4.7E−08 femtomoles cell^−1.

As to `CCCCOc1ccc(C(=O)NCCC2=CCCCC2)cc1` [ST060056], in assay [1], the “Log-reduction Colony Forming Units (ml^−1)” value turned out to be 5.38 log and the MEC was determined as 4 µg/mL. Besides, the “Minocylcine Per Cell” value in assay [2] is reported as 4.22E−08 femtomoles cell^−1.

`N#CC1=C(N)n2c(s/c(=C\c3ccccc3Cl)c2=O)=C(C#N)C1c1ccccc1Cl` (stereo not drawn) [ST006953]: in assay [1], the “Log-reduction Colony Forming Units (ml^−1)” value worked out at 2.71 log and the MEC worked out at 4 µg/mL. Moreover, the “Minocylcine Per Cell” value in assay [2] came out at 4.31E−08 femtomoles cell^−1.

Take `CCOC(=O)C1=C(CN2CCCCC2)NC(=O)NC1c1ccc2c(c1)OCO2` (stereo not drawn) [ST058478]: in assay [1], the “Log-reduction Colony Forming Units (ml^−1)” value was determined as 6.33 log and the MEC is 64 µg/mL. Also, in assay [2], the “Minocylcine Per Cell” value came to 1.52E−07 femtomoles cell^−1.

As for `COc1ccc(C=O)cc1Cn1nnc2ccccc21` [ST033235], in assay [1], the “Log-reduction Colony Forming Units (ml^−1)” value is 2.21 log and the MEC is 32 µg/mL. In assay [2], the “Minocylcine Per Cell” value worked out at 6.652E−08 femtomoles cell^−1.

As for `O=[N+]([O-])c1cc(/C=N/c2ccc(S(=O)(=O)NC3NC=CS3)cc2)c2c(c1)COCO2` (stereo not drawn) [ST012941], in assay [1], the “Log-reduction Colony Forming Units (ml^−1)” value was 6.23 log and the MEC is 64 µg/mL. The “Minocylcine Per Cell” value in assay [2] came to 8.12E−09 femtomoles cell^−1.

As to `N#Cc1c(/N=C/c2ccco2)sc2c1CCCC2` [ST033063], in assay [1], the “Log-reduction Colony Forming Units (ml^−1)” value came out at 1.93 log and the MEC amounted to 2 µg/mL. In addition, the “Minocylcine Per Cell” value in assay [2] is given as 5.84E−08 femtomoles cell^−1.

As to `CCCCCCCN1C(=O)/C(=c2\sc3n(c2=O)C(c2ccc(OC(=O)c4ccco4)cc2)C(C(=O)OC)=C(C)N=3)c2ccccc21` (stereo not drawn) [ST029434], in assay [1], the “Log-reduction Colony Forming Units (ml^−1)” value was determined as 3.02 log and the MEC came out at 64 µg/mL. Further, the “Minocylcine Per Cell” value in assay [2] was determined as 1.73E−08 femtomoles cell^−1.

Consider `O=S(=O)(Nc1nccs1)c1ccc(/N=C/c2c(O)ccc3ccccc23)cc1` [ST012934], for which, in assay [1], the “Log-reduction Colony Forming Units (ml^−1)” value worked out at 4.42 log and the MEC was found to be 32 µg/mL. Moreover, the “Minocylcine Per Cell” value in assay [2] was found to be 2.28E−08 femtomoles cell^−1.

For `C/C(=N\c1ccc(S(=O)(=O)Nc2nccs2)cc1)c1ccc(O)cc1O` [ST012963], in assay [1], the “Log-reduction Colony Forming Units (ml^−1)” value was determined as 3.90 log and the MEC came to 32 µg/mL. For the same compound, the “Minocylcine Per Cell” value in assay [2] is given as 3.23E−08 femtomoles cell^−1.

As for `Oc1ccccc1/C=N/c1nccs1` [ST009531], in assay [1], the “Log-reduction Colony Forming Units (ml^−1)” value is 2.77 log and the MEC came to 2 µg/mL. The “Minocylcine Per Cell” value in assay [2] stood at 5.88E−09 femtomoles cell^−1.

With `Nc1nnc(SCC(=O)N2CCCC2)s1` [ST059421], in assay [1], the “Log-reduction Colony Forming Units (ml^−1)” value worked out at 6.31 log and the MEC worked out at 4 µg/mL. The “Minocylcine Per Cell” value in assay [2] came out at 1.27E−07 femtomoles cell^−1.

For `O=S(=O)(Nc1nccs1)c1ccc(/N=C/c2cc(Cl)cc3c2OCOC3)cc1` [ST012955], in assay [1], the “Log-reduction Colony Forming Units (ml^−1)” value is listed as 4.42 log and the MEC is 32 µg/mL. For the same compound, in assay [2], the “Minocylcine Per Cell” value was found to be 1.04E−08 femtomoles cell^−1.

For `NS(=O)(=O)c1ccc(/N=C/c2ccccc2O)cc1` [ST009655], in assay [1], the “Log-reduction Colony Forming Units (ml^−1)” value was found to be 6.67 log and the MEC came to 2 µg/mL. In addition, the “Minocylcine Per Cell” value in assay [2] came out at 2.61E−07 femtomoles cell^−1.

For `C/C(Cn1nnc([N+](=O)[O-])n1)=N\NC(=O)CC#N` [ST025773], in assay [1], the “Log-reduction Colony Forming Units (ml^−1)” value turned out to be 8.00 log and the MEC worked out at 32 µg/mL. Also, the “Minocylcine Per Cell” value in assay [2] was determined as 1.04E−07 femtomoles cell^−1.

For the compound `CN1CCN(C(=O)CCSc2ccccc2)CC1` [ST058672], in assay [1], the “Log-reduction Colony Forming Units (ml^−1)” value worked out at 5.97 log and the MEC came out at 4 µg/mL. Besides, in assay [2], the “Minocylcine Per Cell” value came to 3.2E−07 femtomoles cell^−1.

The record behind these values is patent publication US10471028B2, “Small molecule efflux pump inhibitors” (UNIVERSITY OF ROCHESTER, priority 2014, dated 2019).
